Source: patent US12357610B2, “Aryl-substituted acetamide and pyrrolidin-2-one derivatives and their use for the treatment of seizures” (University of Houston System, priority 2017, dated 2025)

System: convulsions in animal models of medically refractory epilepsy
Assay: rodent models of medically refractory epilepsy (FIG. 12)
Format: in vivo
Settings: multiple rodent models

## CCC1(c2ccccc2)CCNC1=O (racemic) [3-ethyl-3-phenylpyrrolidin-2-one]
  activity in preventing convulsions in animal models of medically refractory epilepsy: active
